How the values were obtained:
[1] = target: T1, SIRT1 (Homo sapiens, UniProt Q96EB6); assay: Mass spectrometry based assay to identify modulators of SIRT1 activity (deacetylation of p53-based acetylated peptide substrate); format: biochemical; conditions: for Emax: 25 min, SIRT1 activation, read-out: % FOLD ACT. (percent maximum fold activation)
T1 sequence (Q96EB6 1-747): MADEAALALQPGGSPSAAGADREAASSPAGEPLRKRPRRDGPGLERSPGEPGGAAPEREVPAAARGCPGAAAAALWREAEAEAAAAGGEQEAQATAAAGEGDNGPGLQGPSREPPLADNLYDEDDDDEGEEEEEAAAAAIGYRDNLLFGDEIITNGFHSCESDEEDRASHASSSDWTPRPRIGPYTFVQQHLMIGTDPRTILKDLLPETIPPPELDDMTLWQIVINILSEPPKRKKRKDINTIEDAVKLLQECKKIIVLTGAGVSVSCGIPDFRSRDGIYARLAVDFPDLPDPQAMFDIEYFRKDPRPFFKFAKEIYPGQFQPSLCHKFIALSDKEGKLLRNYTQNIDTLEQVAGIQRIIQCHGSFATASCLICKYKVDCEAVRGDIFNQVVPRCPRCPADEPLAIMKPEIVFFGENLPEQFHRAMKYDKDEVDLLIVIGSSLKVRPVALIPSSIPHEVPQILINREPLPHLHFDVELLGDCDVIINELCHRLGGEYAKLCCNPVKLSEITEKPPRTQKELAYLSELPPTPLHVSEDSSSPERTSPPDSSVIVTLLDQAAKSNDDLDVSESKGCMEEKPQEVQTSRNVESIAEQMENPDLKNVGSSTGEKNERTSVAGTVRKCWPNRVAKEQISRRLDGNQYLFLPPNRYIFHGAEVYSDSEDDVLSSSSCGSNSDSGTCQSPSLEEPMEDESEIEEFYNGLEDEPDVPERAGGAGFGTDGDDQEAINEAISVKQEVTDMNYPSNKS
Summary of the method: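 Deacetylation of a modified p53 acetyl-lysine peptide ([…], 5TMR-labelled, Nle for Met) by 10 nM N-His SIRT1 with 120 μM βNAD+, pH 8, 25 min, 25 °C. Substrate and product masses measured by MS after formic acid quench; nicotinamide defines maximal inhibition.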

[2] = test system: TNF; assay: TNF IC50 (column of Table 1; method not in the text shown); format: cell-based

| Compound | EC1.5 (concentration giving 1.5-fold activation) [1] [nM] | Emax [1] [%] | IC50 [2] [µM] |
| --- | --- | --- | --- |
| CC1CCN(C(=O)Nc2ccc(F)cn2)c2nc(-c3cccc(C(F)(F)F)c3)ccc21 (stereo not drawn) [Compound 800] | < 1000 | ≤ 200 | < 20 |
| CC1CCN(C(=O)Nc2cccc(OC[C@@H](O)CO)n2)c2nc(-c3cccc(C(F)(F)F)c3)ccc21 (stereo partly drawn) [Compound 801] | < 1000 | > 200 | < 20 |
| CC1CCN(C(=O)Nc2ccncc2F)c2nc(-c3cccc(C(F)(F)F)c3)ccc21 (stereo not drawn) [Compound 804] | < 1000 | > 200 | < 20 |
| O=C(Nc1cncc(OCC(O)CO)n1)N1CCC(F)(F)c2ccc(-c3cccc(C(F)(F)F)c3)nc21 (stereo not drawn) [Compound 813] | < 1000 | > 200 | < 20 |
| O=C(Nc1cccc(N2CC3(CCO3)C2)n1)N1CCOc2ccc(-c3cccc(C(F)(F)F)c3)nc21 [Compound 823, N-(6-(1-oxa-6-azaspiro[3.3]heptan-6-yl)pyridin-2-yl)-6-(3-(trifluoromethyl)phenyl)-2H-pyrido[3,2-b][1,4]oxazine-4(3H)-carboxamide] | < 1000 | > 200 | ≥ 20 |
| CC1(C)CCN(C(=O)Nc2ccncn2)c2nc(-c3cccc(C(F)(F)F)c3)ccc21 [Compound 838] | < 1000 | > 200 | ≥ 20 |
| CC1(C)CCN(C(=O)Nc2cccc(OC[C@@H](O)CO)n2)c2nc(-c3cccc(C(F)(F)F)c3)ccc21 [Compound 840] | < 1000 | > 200 | < 20 |
| O=C(Nc1ccncc1)N1CCc2ccc(-c3cccc(C(F)(F)F)c3)nc21 [Compound 849] | < 1000 | > 200 | < 20 |
| O=C(Nc1ccncn1)N1CCc2ccc(-c3cccc(C(F)(F)F)c3)nc21 [Compound 850] | < 1000 | > 200 | ≥ 20 |
| O=C(Nc1cc(OCC(O)CO)ccn1)N1CCC(F)(F)c2ccc(-c3cccc(C(F)(F)F)c3)nc21 (stereo not drawn) [Compound 860] | < 1000 | > 200 | < 20 |
| O=C(Nc1ccccn1)N1CCc2ccc(-c3cccc(C(F)(F)F)c3)nc21 [Compound 861, N-(pyridin-2-yl)-6-(3-(trifluoromethyl)phenyl)-2,3-dihydro-1H-pyrrolo[2,3-b]pyridine-1-carboxamide] | < 1000 | > 200 | ≥ 20 |
| O=C(Nc1cncc(OCC(O)CO)n1)N1CCc2ccc(-c3cccc(C(F)(F)F)c3)nc21 (stereo not drawn) [Compound 868] | < 1000 | > 200 | < 20 |
| O=C(Nc1cccc(N2CC3(CCO3)C2)n1)N1CCc2ccc(-c3cccc(C(F)(F)F)c3)nc21 [Compound 869] | < 1000 | > 200 | < 20 |
| O=C(Nc1ccncc1F)N1CCc2ccc(-c3cccc(C(F)(F)F)c3)nc21 [Compound 870] | < 1000 | > 200 | < 20 |
| O=C(Nc1ccnc(OCC(O)CO)n1)N1CCc2ccc(-c3cccc(C(F)(F)F)c3)nc21 (stereo not drawn) [Compound 874] | < 1000 | > 200 | ≥ 20 |
| O=C(Nc1ccnc(OCC(O)CO)n1)N1CCCOc2ccc(-c3cccc(Cl)c3)nc21 (stereo not drawn) [Compound 876] | < 1000 | > 200 | < 20 |
| O=C(Nc1cccc(N2CC3(COC3)C2)n1)N1CCc2ccc(-c3cccc(C(F)(F)F)c3)nc21 [Compound 877] | < 1000 | > 200 | < 20 |
| O=C(Nc1cnc(OC[C@H](O)CO)cn1)N1CCCOc2ccc(-c3cccc(Cl)c3)nc21 [Compound 878] | < 1000 | > 200 | < 20 |
| O=C(Nc1ccc2nccn2c1)N1CCCOc2ccc(-c3cccc(Cl)c3)nc21 [Compound 880] | < 1000 | > 200 | < 20 |
| COc1cc(NC(=O)N2CCCOc3ccc(-c4cccc(Cl)c4)nc32)ccn1 [Compound 882] | < 1000 | > 200 | ≥ 20 |
| Cn1cc2ccc(NC(=O)N3CCCOc4ccc(-c5cccc(Cl)c5)nc43)cc2n1 [Compound 883] | < 1000 | > 200 | < 20 |
| O=C(Nc1cccnc1)N1CCCc2ccc(-c3cccnc3)nc21 [Compound 886] | 1000 to 25000 | > 200 | ≥ 20 |

More lines, now with the values ahead:

| EC1.5 (concentration giving 1.5-fold activation) [1] [nM] | Emax [1] [%] | IC50 [2] [µM] | Compound |
| --- | --- | --- | --- |
| < 1000 | > 200 | < 20 | CC1CCN(C(=O)Nc2ccncn2)c2nc(-c3cccc(C(F)(F)F)c3)ccc21 (stereo not drawn) [Compound 805] |
| < 1000 | > 200 | < 20 | O=C(Nc1ccnc(OC[C@H](O)CO)n1)N1CCC(F)(F)c2ccc(-c3cccc(C(F)(F)F)c3)nc21 [Compound 825] |
| < 1000 | > 200 | ≥ 20 | COc1nccc(NC(=O)N2CCCC(=O)c3ccc(-c4cccc(C(F)(F)F)c4)nc32)n1 [Compound 830] |
| < 1000 | > 200 | < 20 | Cc1csc(NC(=O)N2CCC(C)(C)c3ccc(-c4cccc(C(F)(F)F)c4)nc32)n1 [Compound 839] |
| < 1000 | > 200 | < 20 | CC1(C)CCN(C(=O)Nc2ccnc(OC[C@H](O)CO)n2)c2nc(-c3cccc(C(F)(F)F)c3)ccc21 [Compound 845] |
| < 1000 | > 200 | < 20 | CC1(C)CCN(C(=O)Nc2cncc(OCC(O)CO)n2)c2nc(-c3cccc(C(F)(F)F)c3)ccc21 (stereo not drawn) [Compound 848] |
| < 1000 | > 200 | ≥ 20 | Cc1csc(NC(=O)N2CCc3ccc(-c4cccc(C(F)(F)F)c4)nc32)n1 [Compound 851] |
| 1000 to 25000 | > 200 | < 20 | O=C(Nc1ccnc(OC[C@H](O)CO)c1)N1CCCOc2ccc(-c3cccc(Cl)c3)nc21 [Compound 864] |
| < 1000 | > 200 | ≥ 20 | COc1cc(NC(=O)N2CCCOc3ccc(-c4cccc(Cl)c4)nc32)nc(OC)n1 [Compound 873] |
| < 1000 | > 200 | < 20 | O=C(Nc1cc(OCC(O)CO)ccn1)N1CCc2ccc(-c3cccc(C(F)(F)F)c3)nc21 (stereo not drawn) [Compound 875] |
| < 1000 | > 200 | ≥ 20 | O=C(Nc1ccc2nccnc2c1)N1CCCOc2ccc(-c3cccc(Cl)c3)nc21 [Compound 881] |
| < 1000 | > 200 | ≥ 20 | O=C(Nc1cccnc1)N1CCOc2ccc(-c3cccc(C(F)(F)F)c3)nc21 [Compound 887] |
